Results as given in ChEMBL document CHEMBL3885881, “DrugMatrix”.

Organism: Rattus norvegicus
Test: DrugMatrix - Regimen: Daily Repeat
Assay type: toxicity, organism-based, Sprague-Dawley
Set-up: regimen Daily Repeat, gender Male, age 6-8 weeks
Settings: in vivo, po, route oral GAVAGE, vehicle .5 % CMC; for ABSOLUTE BASOPHIL / ABSOLUTE EOSINOPHIL / ABSOLUTE LYMPHOCYTE / ABSOLUTE MONOCYTE / ABSOLUTE SEGMENTED NEUTROPHIL / BASOPHIL / EOSINOPHIL / ERYTHROCYTE COUNT / HEMATOCRIT / HEMOGLOBIN / LEUKOCYTE COUNT / LYMPHOCYTE / MEAN CORPUSCULAR HEMOGLOBIN / MEAN CORPUSCULAR HEMOGLOBIN CONCENTRATION / MEAN CORPUSCULAR VOLUME / MONOCYTE / NEUTROPHIL / NUCLEATED RED BLOOD CELLS / PLATELET COUNT: tissue Blood; for ALANINE AMINOTRANSFERASE / ALBUMIN / ALKALINE PHOSPHATASE / ASPARTATE AMINOTRANSFERASE / BLOOD UREA NITROGEN / CARBON DIOXIDE / CHLORIDE / CHOLESTEROL / CREATINE PHOSPHOKINASE / CREATININE / GLUCOSE / LACTATE DEHYDROGENASE / LIPASE / PHOSPHORUS / POTASSIUM / SODIUM / TOTAL BILIRUBIN / TOTAL PROTEIN / URIC ACID: tissue Plasma
[1] = 0 mg/kg, 72 h, dose level Control, time 3 day
[2] = 0 mg/kg, 120 h, dose level Control, time 5 day
[3] = 16 mg/kg, 72 h, dose level Low, time 3 day

With `CCOC(=O)OC(C)OC1=C(C(=O)Nc2ccccn2)N(C)S(=O)(=O)c2ccccc21` (centres undefined) [AMPIROXICAM] the “ABSOLUTE BASOPHIL” value [1] was 0 CELLS/uL, the “ABSOLUTE EOSINOPHIL” value [1] was 15.17 CELLS/uL and the “ABSOLUTE LYMPHOCYTE” value [1] was 10149.83 CELLS/uL. The “ABSOLUTE MONOCYTE” value [1] was 193.33 CELLS/uL, the “ABSOLUTE SEGMENTED NEUTROPHIL” value [1] was 1575 CELLS/uL and the BASOPHIL [1] was 0%. The EOSINOPHIL [1] was 0.17%, the “ERYTHROCYTE COUNT” value [1] was 5.53 x10E6/uL and the HEMATOCRIT [1] was 34.7%. The HEMOGLOBIN [1] was 12.78 G/DL, the “LEUKOCYTE COUNT” value [1] was 11.93 x10E3/uL and the LYMPHOCYTE [1] was 85.5%. The “MEAN CORPUSCULAR HEMOGLOBIN” value [1] was 23.15 pg, the “MEAN CORPUSCULAR HEMOGLOBIN CONCENTRATION” value [1] was 36.9 G/DL and the “MEAN CORPUSCULAR VOLUME” value [1] was 62.82 fL. The MONOCYTE [1] was 1.5%, the NEUTROPHIL [1] was 12.83% and the “NUCLEATED RED BLOOD CELLS” value [1] was 0.5 /100WBC. The “PLATELET COUNT” value [1] was 994.17 x10E3/uL, the “ALANINE AMINOTRANSFERASE” value [1] was 48.17 u/L and the ALBUMIN [1] was 4.37 G/DL. For the same compound, the “ALKALINE PHOSPHATASE” value [1] was 436.5 u/L, the “ASPARTATE AMINOTRANSFERASE” value [1] was 83.17 u/L and the “BLOOD UREA NITROGEN” value [1] was 14.67 mg/dL. For the same compound, the “CARBON DIOXIDE” value [1] was 30.83 mmol/L, the CHLORIDE [1] was 99.17 MEQ/L and the CHOLESTEROL [1] was 86.33 mg/dL. The “CREATINE PHOSPHOKINASE” value [1] was 243.33 u/L, the CREATININE [1] was 0.25 mg/dL and the GLUCOSE [1] was 158 mg/dL. For the same compound, the “LACTATE DEHYDROGENASE” value [1] was 262.33 u/L, the LIPASE [1] was 11 u/L and the PHOSPHORUS [1] was 12.07 mg/dL. The POTASSIUM [1] was 6.52 MEQ/L, the SODIUM [1] was 142.45 MEQ/L and the “TOTAL BILIRUBIN” value [1] was 0.17 mg/dL. For the same compound, the “TOTAL PROTEIN” value [1] was 6.25 G/DL, the “URIC ACID” value [1] was 1.42 mg/dL and the “ABSOLUTE BASOPHIL” value [2] was 0 CELLS/uL. For the same compound, the “ABSOLUTE EOSINOPHIL” value [2] was 0 CELLS/uL, the “ABSOLUTE LYMPHOCYTE” value [2] was 10076.67 CELLS/uL and the “ABSOLUTE MONOCYTE” value [2] was 124 CELLS/uL. The “ABSOLUTE SEGMENTED NEUTROPHIL” value [2] was 966 CELLS/uL, the BASOPHIL [2] was 0% and the EOSINOPHIL [2] was 0%. The “ERYTHROCYTE COUNT” value [2] was 5.57 x10E6/uL, the HEMATOCRIT [2] was 33.37% and the HEMOGLOBIN [2] was 12.73 G/DL. The “LEUKOCYTE COUNT” value [2] was 11.17 x10E3/uL, the LYMPHOCYTE [2] was 90.33% and the “MEAN CORPUSCULAR HEMOGLOBIN” value [2] was 22.9 pg. For the same compound, the “MEAN CORPUSCULAR HEMOGLOBIN CONCENTRATION” value [2] was 38.18 G/DL, the “MEAN CORPUSCULAR VOLUME” value [2] was 59.97 fL and the MONOCYTE [2] was 1%. For the same compound, the NEUTROPHIL [2] was 8.67%, the “NUCLEATED RED BLOOD CELLS” value [2] was 0 /100WBC and the “PLATELET COUNT” value [2] was 1078 x10E3/uL. For the same compound, the “ALANINE AMINOTRANSFERASE” value [2] was 37.17 u/L, the ALBUMIN [2] was 4.2 G/DL and the “ALKALINE PHOSPHATASE” value [2] was 322.17 u/L. For the same compound, the “ASPARTATE AMINOTRANSFERASE” value [2] was 67.67 u/L, the “BLOOD UREA NITROGEN” value [2] was 14 mg/dL and the “CARBON DIOXIDE” value [2] was 27.67 mmol/L. For the same compound, the CHLORIDE [2] was 102.17 MEQ/L, the CHOLESTEROL [2] was 67.67 mg/dL and the “CREATINE PHOSPHOKINASE” value [2] was 171.83 u/L. The CREATININE [2] was 0.27 mg/dL, the GLUCOSE [2] was 172 mg/dL and the “LACTATE DEHYDROGENASE” value [2] was 85.33 u/L. It also gave an LIPASE [2] of 8.67 u/L, a PHOSPHORUS [2] of 12 mg/dL and a POTASSIUM [2] of 6.09 MEQ/L. The SODIUM [2] was 144.82 MEQ/L, the “TOTAL BILIRUBIN” value [2] was 0.13 mg/dL and the “TOTAL PROTEIN” value [2] was 6.07 G/DL. The “URIC ACID” value [2] was 2.13 mg/dL, the “ABSOLUTE BASOPHIL” value [3] was 0 CELLS/uL and the “ABSOLUTE EOSINOPHIL” value [3] was 0 CELLS/uL. For the same compound, the “ABSOLUTE LYMPHOCYTE” value [3] was 13036.33 CELLS/uL, the “ABSOLUTE MONOCYTE” value [3] was 91.33 CELLS/uL and the “ABSOLUTE SEGMENTED NEUTROPHIL” value [3] was 1372.33 CELLS/uL. For the same compound, the BASOPHIL [3] was 0%, the EOSINOPHIL [3] was 0% and the “ERYTHROCYTE COUNT” value [3] was 5.36 x10E6/uL. The HEMATOCRIT [3] was 33.57%, the HEMOGLOBIN [3] was 12.5 G/DL and the “LEUKOCYTE COUNT” value [3] was 14.5 x10E3/uL. The LYMPHOCYTE [3] was 89.33%, the “MEAN CORPUSCULAR HEMOGLOBIN” value [3] was 23.33 pg and the “MEAN CORPUSCULAR HEMOGLOBIN CONCENTRATION” value [3] was 37.23 G/DL. For the same compound, the “MEAN CORPUSCULAR VOLUME” value [3] was 62.67 fL, the MONOCYTE [3] was 0.67% and the NEUTROPHIL [3] was 10%. The “NUCLEATED RED BLOOD CELLS” value [3] was 0 /100WBC, the “PLATELET COUNT” value [3] was 1061.33 x10E3/uL and the “ALANINE AMINOTRANSFERASE” value [3] was 57.33 u/L. The ALBUMIN [3] was 4.3 G/DL, the “ALKALINE PHOSPHATASE” value [3] was 431 u/L and the “ASPARTATE AMINOTRANSFERASE” value [3] was 100.67 u/L. The “BLOOD UREA NITROGEN” value [3] was 12.67 mg/dL, the “CARBON DIOXIDE” value [3] was 32.33 mmol/L and the CHLORIDE [3] was 101.33 MEQ/L. The CHOLESTEROL [3] was 86.33 mg/dL, the “CREATINE PHOSPHOKINASE” value [3] was 214.33 u/L and the CREATININE [3] was 0.25 mg/dL. For the same compound, the GLUCOSE [3] was 155.33 mg/dL, the “LACTATE DEHYDROGENASE” value [3] was 113.33 u/L and the LIPASE [3] was 11.67 u/L. For the same compound, the PHOSPHORUS [3] was 11.83 mg/dL, the POTASSIUM [3] was 6.74 MEQ/L and the SODIUM [3] was 145.43 MEQ/L. The “TOTAL BILIRUBIN” value [3] was 0.13 mg/dL, the “TOTAL PROTEIN” value [3] was 6.13 G/DL and the “URIC ACID” value [3] was 1.73 mg/dL.
